For one experiment, the target named is SMARCA2 (Homo sapiens, UniProt P51531). The experiment in a line: HiBiT assay for protein degradation, Hela SMARCA2-HiBiT cells (A series).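 For SMARC A2 Hela HiBit Dmax (%): 24 h compound treatment.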 The class given is cell-based. Details: Hela cells were genetically modified via CRISPR/Cas9 to fuse HiBiT to the carboxy terminus of SMARCA2; host or cells: HeLa (CRISPR/Cas9 HiBiT knock-in). The settings on record: for DC50: read-out: SMARC A2 Hela HiBit DC50; for Dmax: read-out: SMARC A2 Hela HiBit Dmax (%). The method, boiled down: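 HeLa cells engineered by CRISPR/Cas9 to carry a HiBiT tag fused to the C-terminus of SMARCA2 (Promega CS302365) were grown in DMEM supplemented with FBS and penicillin-streptomycin. After treatment, remaining SMARCA2 protein was quantified with the Nano-Glo® HiBiT Lytic Detection Assay (Promega N3050), and curves were fitted in GraphPad Prism.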
Sequence of SMARCA2 (P51531 whole entry, the tested form may be a part): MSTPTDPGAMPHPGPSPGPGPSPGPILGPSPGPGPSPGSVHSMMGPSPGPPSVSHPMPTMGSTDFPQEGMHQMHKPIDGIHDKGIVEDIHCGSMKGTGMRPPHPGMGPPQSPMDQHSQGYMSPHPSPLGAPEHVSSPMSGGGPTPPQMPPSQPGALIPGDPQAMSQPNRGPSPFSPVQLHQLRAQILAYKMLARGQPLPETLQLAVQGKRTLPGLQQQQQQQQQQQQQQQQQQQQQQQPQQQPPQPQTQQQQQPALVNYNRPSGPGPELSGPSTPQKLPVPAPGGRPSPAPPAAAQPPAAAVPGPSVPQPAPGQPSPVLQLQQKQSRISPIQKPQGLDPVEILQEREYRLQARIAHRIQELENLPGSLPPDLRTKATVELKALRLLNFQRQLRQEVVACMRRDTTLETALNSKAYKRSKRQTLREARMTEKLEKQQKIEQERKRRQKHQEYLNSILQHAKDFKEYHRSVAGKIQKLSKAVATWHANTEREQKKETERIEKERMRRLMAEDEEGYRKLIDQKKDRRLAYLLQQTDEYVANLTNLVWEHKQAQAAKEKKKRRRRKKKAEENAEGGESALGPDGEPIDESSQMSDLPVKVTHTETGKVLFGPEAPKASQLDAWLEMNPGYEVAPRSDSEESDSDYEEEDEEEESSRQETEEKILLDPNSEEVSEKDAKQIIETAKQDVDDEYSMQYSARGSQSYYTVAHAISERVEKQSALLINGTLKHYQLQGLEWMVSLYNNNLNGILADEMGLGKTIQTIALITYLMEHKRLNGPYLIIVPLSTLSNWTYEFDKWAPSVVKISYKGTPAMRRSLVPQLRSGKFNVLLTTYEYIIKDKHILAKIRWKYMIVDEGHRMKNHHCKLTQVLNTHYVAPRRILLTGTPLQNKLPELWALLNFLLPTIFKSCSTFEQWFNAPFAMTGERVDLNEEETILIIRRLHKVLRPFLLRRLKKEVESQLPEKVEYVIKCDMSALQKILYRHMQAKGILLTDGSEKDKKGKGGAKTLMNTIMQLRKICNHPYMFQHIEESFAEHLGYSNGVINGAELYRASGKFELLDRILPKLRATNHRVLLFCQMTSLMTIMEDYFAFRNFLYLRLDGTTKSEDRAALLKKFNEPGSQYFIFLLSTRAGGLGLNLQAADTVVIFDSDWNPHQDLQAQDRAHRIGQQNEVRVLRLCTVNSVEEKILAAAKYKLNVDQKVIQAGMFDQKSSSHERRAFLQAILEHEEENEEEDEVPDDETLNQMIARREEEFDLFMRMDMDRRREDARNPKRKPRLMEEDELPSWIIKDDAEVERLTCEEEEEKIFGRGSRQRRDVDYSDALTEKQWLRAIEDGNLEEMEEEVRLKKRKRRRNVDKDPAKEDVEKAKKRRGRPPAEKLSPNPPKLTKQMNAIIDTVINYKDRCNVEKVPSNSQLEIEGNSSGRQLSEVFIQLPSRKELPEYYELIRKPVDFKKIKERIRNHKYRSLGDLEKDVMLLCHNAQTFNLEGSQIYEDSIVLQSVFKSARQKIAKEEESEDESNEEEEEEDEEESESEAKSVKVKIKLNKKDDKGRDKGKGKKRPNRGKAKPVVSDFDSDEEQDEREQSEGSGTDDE
On the technique in general: HiBiT is a short tag that completes a luciferase, so light tracks the accessible tagged protein.

A further experiment deals with SMARCA4 (Homo sapiens, UniProt P51532). Kind of experiment: HiBiT assay for protein degradation, Hela SMARCA4-HiBiT cells (A series). Details: fuse HiBiT to the carboxy terminus of SMARCA2 (Promega CS302365) or SMARCA4 (Promega CS3023225); host or cells: HeLa (CRISPR/Cas9 HiBiT knock-in). The class given is cell-based. The settings on record: for DC50: read-out: SMARC A4 Hela HiBit DC50. On the procedure: Hela cells were genetically modified via CRISPR/Cas9 to fuse HiBiT to the carboxy terminus of SMARCA2 (Promega CS302365) or SMARCA4 (Promega CS3023225). Cells were cultured in DMEM containing 10% FBS and 1% (Vol:Vol) penicillin-streptomycin. […] At the end of experiment, levels of SMARCA2 or SMARCA4 expression were assessed with Nano-Glo® HiBiT Lytic Detection Assay (Promega N3050). IC50 was obtained using the GraphPad Prism data analysis software.
Sequence of SMARCA4 (P51532 whole entry): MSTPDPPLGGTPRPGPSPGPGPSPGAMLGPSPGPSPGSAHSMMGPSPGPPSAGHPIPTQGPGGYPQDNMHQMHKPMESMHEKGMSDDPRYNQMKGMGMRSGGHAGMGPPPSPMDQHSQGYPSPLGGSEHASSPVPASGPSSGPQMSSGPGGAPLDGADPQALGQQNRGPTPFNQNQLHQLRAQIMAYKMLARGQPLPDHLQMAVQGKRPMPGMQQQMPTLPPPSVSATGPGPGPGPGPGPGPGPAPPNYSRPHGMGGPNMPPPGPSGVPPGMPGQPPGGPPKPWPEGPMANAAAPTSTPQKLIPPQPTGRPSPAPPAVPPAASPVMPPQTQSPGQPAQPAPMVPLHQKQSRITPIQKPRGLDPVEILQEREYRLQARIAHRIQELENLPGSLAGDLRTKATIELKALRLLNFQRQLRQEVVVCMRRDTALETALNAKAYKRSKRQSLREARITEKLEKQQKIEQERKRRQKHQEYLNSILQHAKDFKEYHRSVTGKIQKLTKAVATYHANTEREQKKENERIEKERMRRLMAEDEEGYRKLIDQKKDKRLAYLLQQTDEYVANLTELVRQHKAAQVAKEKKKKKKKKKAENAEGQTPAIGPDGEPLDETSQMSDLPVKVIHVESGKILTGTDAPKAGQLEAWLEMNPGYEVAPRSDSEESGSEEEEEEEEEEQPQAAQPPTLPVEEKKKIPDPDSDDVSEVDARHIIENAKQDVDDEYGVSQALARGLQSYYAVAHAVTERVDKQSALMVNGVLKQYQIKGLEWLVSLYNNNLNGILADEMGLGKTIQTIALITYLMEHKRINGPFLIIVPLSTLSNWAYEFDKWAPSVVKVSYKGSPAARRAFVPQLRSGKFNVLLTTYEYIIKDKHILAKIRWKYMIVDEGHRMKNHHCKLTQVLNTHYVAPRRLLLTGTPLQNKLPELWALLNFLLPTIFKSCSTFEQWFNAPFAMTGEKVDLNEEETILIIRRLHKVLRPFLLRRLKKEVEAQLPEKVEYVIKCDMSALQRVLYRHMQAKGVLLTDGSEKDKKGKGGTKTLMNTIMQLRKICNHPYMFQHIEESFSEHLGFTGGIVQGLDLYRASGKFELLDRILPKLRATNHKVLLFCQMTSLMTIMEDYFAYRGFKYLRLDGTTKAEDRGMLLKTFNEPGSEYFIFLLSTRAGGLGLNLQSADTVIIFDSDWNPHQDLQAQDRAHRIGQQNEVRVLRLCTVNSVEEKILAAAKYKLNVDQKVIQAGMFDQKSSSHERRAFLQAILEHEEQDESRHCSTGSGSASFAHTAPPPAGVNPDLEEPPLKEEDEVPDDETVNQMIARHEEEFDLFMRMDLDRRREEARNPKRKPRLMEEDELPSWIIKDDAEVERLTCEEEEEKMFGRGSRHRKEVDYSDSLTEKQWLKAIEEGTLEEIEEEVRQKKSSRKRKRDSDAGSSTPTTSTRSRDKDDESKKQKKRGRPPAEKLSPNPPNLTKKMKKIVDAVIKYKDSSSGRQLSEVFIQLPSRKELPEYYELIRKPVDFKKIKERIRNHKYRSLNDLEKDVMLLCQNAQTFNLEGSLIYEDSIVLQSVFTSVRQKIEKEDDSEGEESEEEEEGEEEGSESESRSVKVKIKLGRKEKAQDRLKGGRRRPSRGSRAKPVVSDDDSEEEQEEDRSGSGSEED

Setting [1] is: Hela SMARCA2-HiBiT cells, 24 hours treatment.
[2] abbreviates: Hela SMARCA4-HiBiT cells, 24 hours treatment.
Setting [3] is: Hela SMARCA4-HiBiT cells, 24 hours treatment, read-out: SMARC A4 Hela HiBit Dmax(%).
[4] abbreviates: Hela SMARCA4-HiBiT cells, 24 hours treatment, read-out: SMARC A4 Hela HiBit Dmax.

Like-named read-outs stand apart in the source and are kept apart here.

In general, DC50 refers to the concentration at which degradation of the target reaches its halfway point. Regarding `Cc1ncsc1-c1ccc([C@H](C)NC(=O)[C@@H]2C[C@@H](O)CN2C(=O)[C@@H](n2cc(CCCCCN3CCC(c4ccc5c(c4)-n4c(nc(=O)c6c(Br)cccc64)C54CCCCC4)CC3)nn2)C(C)(C)C)cc1` [Compound A46, (2S,4R)-1-((S)-2-(4-(5-(4-(4′-bromo-5′-oxo-5′H-spiro[cyclohexane-1,7′-indolo[1,2-a]quinazolin]-10′-yl)piperidin-1-yl)pentyl)-1H-1,2,3-triazol-1-yl)-3,3-dimethylbutanoyl)-4-hydroxy-N—((S)-1-(4-(4-methylthiazol-5-yl)phenyl)ethyl)pyrrolidine-2-carboxamide], the “SMARC A2 Hela HiBit Dmax (%)” value on SMARCA2 (setting [1]) is given as “A (A (>90% degradation))”. Also, the DC50 at SMARCA2 and on SMARCA4 was less than 0.1 µM each time. The “SMARC A4 Hela HiBit Dmax(%)” value on SMARCA4 (setting [2]) is “B (B (70-90% degradation))”.
The Dmax is the greatest extent of degradation seen. Consider `Cc1ncsc1-c1ccc([C@H](C)NC(=O)[C@@H]2C[C@@H](O)CN2C(=O)[C@@H](n2cc([C@H]3CC[C@H](CN4CCC(c5ccc6c(n5)-n5c(nc(=O)c7c(Br)cccc75)C65CCCCC5)CC4)CC3)nn2)C(C)(C)C)cc1` [Compound A50, (2S,4R)-1-((S)-2-(4-((1r,4S)-4-((4-(4′-bromo-5′-oxo-5′H-spiro[cyclohexane-1,7′-pyrido[3′,2′: 4,5]pyrrolo[1,2-a]quinazolin]-10′-yl)piperidin-1-yl)methyl)cyclohexyl)-1H-1,2,3-triazol-1-yl)-3,3-dimethylbutanoyl)-4-hydroxy-N—((S)-1-(4-(4-methylthiazol-5-yl)phenyl)ethyl)pyrrolidine-2-carboxamide], for which, on SMARCA2 (HeLa), the Dmax is greater than 90%. On SMARCA2 (setting [1]), the 50% degradation concentration (DC50) is less than 0.1 µM. Moreover, on SMARCA4 (setting [2]), the “SMARC A4 Hela HiBit DC50(nM)” value is “No Fit”.
On to `Cc1ncsc1-c1ccc([C@H](C)NC(=O)[C@@H]2C[C@@H](O)CN2C(=O)[C@@H](NC(=O)CCN2CCC(c3ccc4c(c3)C3(CCCCC3)c3nc(=O)c5c(Cl)cccc5n3-4)CC2)C(C)(C)C)cc1` [Compound A6, (2S,4R)-1-((S)-2-(3-(4-(4′-chloro-5′-oxo-5′H-spiro[cyclohexane-1,7′-indolo[1,2-a]quinazolin]-9′-yl)piperidin-1-yl)propanamido)-3,3-dimethylbutanoyl)-4-hydroxy-N—((S)-1-(4-(4-methylthiazol-5-yl)phenyl)ethyl) pyrrolidine-2-carboxamide], for which the greatest degradation seen (Dmax) is 70 to 90% on SMARCA2 (HeLa) and 50 to 69% at SMARCA4 (HeLa, read-out: SMARC A4 Hela HiBit Dmax(%)). Further, the figures for the DC50 on SMARCA2 (setting [1]) and at SMARCA4 (setting [2]) were 0.1 to 0.5 µM and 0.501 to 1 µM, respectively.
For the molecule `Cc1ncsc1-c1ccc([C@H](C)NC(=O)[C@@H]2C[C@@H](O)CN2C(=O)[C@@H](n2cc(CN3CCC(c4ccc5c(c4)C4(CCCCC4)c4nc(=O)c6c(Br)cccc6n4-5)CC3)nn2)C(C)(C)C)cc1` [Compound A53, (2S,4R)-1-((S)-2-(4-((4-(4′-bromo-5′-oxo-5′H-spiro[cyclohexane-1,7′-indolo[1,2-a]quinazolin]-9′-yl)piperidin-1-yl)methyl)-1H-1,2,3-triazol-1-yl)-3,3-dimethylbutanoyl)-4-hydroxy-N—((S)-1-(4-(4-methylthiazol-5-yl)phenyl)ethyl)pyrrolidine-2-carboxamide], the half-maximal degradation concentration (DC50) on SMARCA2 (setting [1]) and at SMARCA4 (setting [2]) was less than 0.1 µM each time. Besides, the maximal degradation (Dmax) on SMARCA2 (setting [1]) and on SMARCA4 (setting [3]) was greater than 90% throughout.
With `Cc1ncsc1-c1ccc([C@H](CN2CCN(C)CC2)NC(=O)[C@@H]2C[C@@H](O)CN2C(=O)[C@@H](n2cc([C@H]3CC[C@H](CN4CCC(c5ccc6c(c5)-n5c(nc(=O)c7c(Cl)cccc75)C65CCCCC5)CC4)CC3)nn2)C(C)(C)C)cc1` [Compound A85, (2S,4R)-1-((S)-2-(4-((1r,4S)-4-((4-(4′-chloro-5′-oxo-5′H-spiro[cyclohexane-1,7′-indolo[1,2-a]quinazolin]-10′-yl)piperidin-1-yl)methyl)cyclohexyl)-1H-1,2,3-triazol-1-yl)-3,3-dimethylbutanoyl)-4-hydroxy-N—((R)-2-(4-methylpiperazin-1-yl)-1-(4-(4-methylthiazol-5-yl)phenyl)ethyl)pyrrolidine-2-carboxamide], the DC50 was less than 0.01 µM at SMARCA2 (setting [1]) and 0.01 to 0.1 µM on SMARCA4 (setting [2]). The results for the Dmax on SMARCA2 (setting [1]) and at SMARCA4 (setting [4]) were greater than 90% and 50 to 69%, respectively.
Turning to `Cc1ncsc1-c1ccc([C@H](C)NC(=O)[C@@H]2C[C@@H](O)CN2C(=O)[C@H](C2CCCCC2)n2cc([C@H]3CC[C@H](CN4CCC(c5ccc6c(c5)-n5c(nc(=O)c7c(Cl)cccc75)C6(C)C)CC4)CC3)nn2)cc1` [Compound A124, (2S,4R)-1-((S)-2-(4-((1r,4S)-4-((4-(4-chloro-7,7-dimethyl-5-oxo-5,7-dihydroindolo[1,2-a]quinazolin-10-yl)piperidin-1-yl)methyl)cyclohexyl)-1H-1,2,3-triazol-1-yl)-2-cyclohexylacetyl)-4-hydroxy-N—((S)-1-(4-(4-methylthiazol-5-yl)phenyl)ethyl)pyrrolidine-2-carboxamide], on SMARCA2 (setting [1]), the DC50 is less than 0.01 µM and the Dmax was greater than 90%. For the same molecule, the “SMARC A4 Hela HiBit DC50(nM)” value at SMARCA4 (setting [2]) is reported as “No fit”. Besides, the Dmax on SMARCA4 (setting [4]) was less than 50%.
With `Cc1ncsc1-c1ccc([C@H](C)NC(=O)[C@@H]2C[C@@H](O)CN2C(=O)[C@@H](n2cc(C3(CN4CCC(c5ccc6c(c5)-n5c(nc(=O)c7c(Br)cccc75)C65CCCCC5)CC4)CC3)nn2)C(C)(C)C)cc1` [Compound A64, (2S,4R)-1-((S)-2-(4-(1-((4-(4′-bromo-5′-oxo-5′H-spiro[cyclohexane-1,7′-indolo[1,2-a]quinazolin]-10′-yl)piperidin-1-yl)methyl)cyclopropyl)-1H-1,2,3-triazol-1-yl)-3,3-dimethylbutanoyl)-4-hydroxy-N—((S)-1-(4-(4-methylthiazol-5-yl)phenyl)ethyl)pyrrolidine-2-carboxamide], the “SMARC A2 Hela HiBit Dmax (%)” value at SMARCA2 (setting [1]) is on record as “A (A (>90% degradation))”. In addition, the results for the DC50 at SMARCA2 and at SMARCA4 were less than 0.1 µM and 0.1 to 0.5 µM, respectively. Further, on SMARCA4 (setting [2]), the “SMARC A4 Hela HiBit Dmax(%)” value is “B (B (70-90% degradation))”.
With `Cc1ncsc1-c1ccc([C@H](CN2CCC(C(=O)O)CC2)NC(=O)[C@@H]2C[C@@H](O)CN2C(=O)[C@@H](n2cc([C@H]3CC[C@H](CN4CCC(c5ccc6c(c5)-n5c(nc(=O)c7c(Cl)cccc75)C65CCCCC5)CC4)CC3)nn2)C(C)(C)C)cc1` [Compound A156, 1-((R)-2-((2S,4R)-1-((S)-2-(4-((1r,4S)-4-((4-(4′-chloro-5′-oxo-5′H-spiro[cyclohexane-1,7′-indolo[1,2-a]quinazolin]-10′-yl)piperidin-1-yl)methyl)cyclohexyl)-1H-1,2,3-triazol-1-yl)-3,3-dimethylbutanoyl)-4-hydroxypyrrolidine-2-carboxamido)-2-(4-(4-methylthiazol-5-yl)phenyl)ethyl)piperidine-4-carboxylic acid], the half-maximal degradation concentration (DC50) on SMARCA2 (setting [1]) is 0.1 to 1 µM; at SMARCA4 (setting [2]), greater than 1 µM. Further, the maximal degradation (Dmax) was 70 to 90% on SMARCA2 (setting [1]) and less than 50% on SMARCA4 (setting [4]).
On the same counts, the results for `Cc1ncsc1-c1ccc([C@H](CN2CCOCC2)NC(=O)[C@@H]2C[C@@H](O)CN2C(=O)[C@@H](n2cc([C@H]3C[C@H](CN4CC5(CCC(c6ccc7c(c6)-n6c(nc(=O)c8c(Cl)cccc86)C76CCCCC6)CC5)C4)C3)nn2)C(C)(C)C)cc1` [Compound A88, (2S,4R)-1-((S)-2-(4-((1r,3S)-3-((7-(4′-chloro-5′-oxo-5′H-spiro[cyclohexane-1,7′-indolo[1,2-a]quinazolin]-10′-yl)-2-azaspiro[3.5]nonan-2-yl)methyl)cyclobutyl)-1H-1,2,3-triazol-1-yl)-3,3-dimethylbutanoyl)-4-hydroxy-N—((R)-1-(4-(4-methylthiazol-5-yl)phenyl)-2-morpholinoethyl)pyrrolidine-2-carboxamide] are 0.01 to 0.1 µM, 0.01 to 0.1 µM, greater than 90% and 70 to 90%.
Consider `Cc1ncsc1-c1ccc([C@H](CCCCCN2CCC(c3ccc4c(c3)C3(CCCCC3)c3nc(=O)c5c(Br)cccc5n3-4)CC2)NC(=O)[C@H]2C[C@H](O)CN2C(=O)[C@@H](NC(=O)C2(CN3CCOCC3)CC2)C(C)(C)C)cc1` [Compound A38, (2R,4S)—N—((S)-6-(4-(4′-bromo-5′-oxo-5′H-spiro[cyclohexane-1,7′-indolo[1,2-a]quinazolin]-9′-yl)piperidin-1-yl)-1-(4-(4-methylthiazol-5-yl)phenyl)hexyl)-1-((S)-3,3-dimethyl-2-(1-(morpholinomethyl)cyclopropane-1-carboxamido)butanoyl)-4-hydroxypyrrolidine-2-carboxamide], for which the DC50 at SMARCA2 (setting [1]) was less than 0.1 µM; at SMARCA4 (setting [2]) it was 0.1 to 0.5 µM. Besides, the Dmax on SMARCA2 (setting [1]) is greater than 90%; at SMARCA4 (setting [3]), 70 to 90%.

Source of the values: US20260092071A1, “COMPOUNDS AND COMPOSITIONS AS SMARCA2/4 DEGRADERS AND USES THEREOF” (REGENTS OF THE UNIVERSITY OF MICHIGAN, priority 2022, published 2026).
